What is called melting point is the temperature, or range, at which the solid turns liquid.

In patent US20070105840A1, “Pyrrolo-dihydroisoquinoline derivatives as pde10 inhibitors” (Altana Pharma AG, priority 2003, published 2007) one finds melting point data, which are given here for 29 compounds.

Compound `COc1cc2c(cc1OC)-c1c(C#N)c(-c3ccnc4ccccc34)c(C)n1CC2` [Example 23, 8,9-Dimethoxy-3-methyl-2-quinolin-4yl-5,6-dihydro-pyrrolo[2,1-a]isoquinoline-1-carbonitrile] came in with a melting point of 239 to 243 °C. To `COc1cc2c(cc1OC)-c1c(C#N)c(-c3c[nH]c4ccccc34)c(C)n1CC2` [Example 24, 2-(1H-indol-3-yl)-8,9-dimethoxy-3-methyl-5,6-dihydro-pyrrolo[2,1-a]isoquinoline-1-carbonitrile] belongs 304 to 307 °C; to `COc1cc2c(cc1OC)-c1c(C#N)c(-c3cc(C(C)(C)C)c(O)c(C(C)(C)C)c3)c(C)n1CC2` [Example 25, 2-(3,5-Di-tert-butyl-4-hydroxy-phenyl)-8,9-dimethoxy-3-methyl-5,6-dihydro-pyrrolo[2,1-a]isoquinoline-1-carbonitrile], 250 to 252 °C. The result for `COc1cc2c(cc1OC)-c1c(C#N)c(-c3ccncc3)c(C)n1C(C)C2` (centres unmarked) [Example 26, 8,9-Dimethoxy-3,5-dimethyl-2-pyridin-4-5,6-dihydro-pyrrolo[2,1-a]isoquinoline-1-carbonitrile] reads 253 to 254 °C. To `COC(=O)CCc1c(-c2cc(C)c(O)c(C)c2)c(C#N)c2n1C(C)Cc1cc(OC)c(OC)cc1-2` (centres unmarked) [Example 27, 3-[1-Cyano-2-(4-hydroxy-3,5-dimethyl)-8,9-dimethoxy-5-methyl-5,6-dihydro-pyrrolo[2,1-a]isoquinolin-3-yl]-propionic acid methyl ester] belongs 208 to 209 °C; to `COc1cc2c(cc1OC)-c1c(C#N)c(-c3cc(C)c(O)c(C)c3)c(C)n1C(C)C2` (centres unmarked) [Example 28, 2-(4-Hydroxy-3,5-dimethyl-phenyl)-8,9-dimethoxy-3,5-dimethy-5,6-dihydro-pyrrolo[2,1-a]isoquinoline-1-carbonitrile], 268 to 270 °C. Regarding `COC(=O)CCc1c(-c2ccncc2)c(C#N)c2n1CCc1cc(OC)c(OC)cc1-2` [Example 29, 3-(1-Cyano-8,9-dimethoxy-2-pyridin-4-yl-5,6-dihydro-pyrrolo[2,1-a]isoquinolin-3-yl)-propionic acid methyl ester], the melting point was 191 to 193 °C.

Compound `COc1cc2c(c(F)c1OC)CC(C)n1c(C)c(-c3cc(C)c(O)c(C)c3)c(C#N)c1-2` (centres unmarked) [Example 30, 7-Fluoro-2-(4-hydroxy-3,5-dimethyl-phenyl)-8,9-dimethoxy-3,5-dimethyl-5,6-dihydro-pyrrolo[2,1-a]isoquinoline-1-carbonitrile] displayed a melting point of 166 to 168 °C. For `COC(=O)CCc1c(-c2ccnc3ccccc23)c(C#N)c2n1CCc1cc(OC)c(OC)cc1-2` [Example 31, 3-(1-Cyano-8,9-dimethoxy-2-quinolin-4-yl-5,6dihydro-pyrrolo[2,1-a]isoquinolin-3-yl)-propionic acid methyl ester], the melting point lay in the range of 232 to 234 °C. The result for `COC(=O)CCc1c(-c2cc(C)c(O)c(C)c2)c(C#N)c2n1CCc1cc(OC)c(OC)cc1-2` [Example 32, 3-[1-Cyano-2-(4-hydroxy-3,5-dimethyl-phenyl)-8,9-dimethoxy-5,6-dihydro-pyrrolo[2,1-a]isoquinolin-3-yl]-propionic acid methyl ester] reads 217 to 219 °C. The result for `COc1cc2c(cc1OC)-c1c(C#N)c(-c3cn(S(C)(=O)=O)c4ccccc34)c(C)n1C(C)C2` (centres unmarked) [Example 40, 2-(1-Methanesulfonyl-1H-indol-3-yl)-8,9-dimethoxy-3,5-dimethyl-5,6-dihydro-pyrrolo[2,1-a]isoquinoline-1-carbonitrile] reads 219 to 221 °C; that for `COc1cc2c(cc1OC)-c1c(C#N)c(-c3cc[n+]([O-])cc3)c(C)n1C(C)C2` (centres unmarked) [Example 41, 8,9-Dimethoxy-3,5-dimethyl-2-(1-oxy-pyridin-4-yl)-5,6-dihydro-pyrolo[2,1-a]isoquinoline-1-carbonitrile], 279 to 282 °C. `COc1cc2c(cc1OC)-c1c(C#N)c(-c3cc(C)c(O)c(C)c3)c(CN3CCOCC3)n1C(C)C2` (centres unmarked) [Example 44, 2-(4-Hydroxy-3,5-dimethyl-phenyl)-8,9-dimethoxy-5-methyl-3-morpholin-4-ylmethyl-5,6-dihydro-pyrrolo[2,1-a]isoquinoline-1-carbonitrile] showed a melting point of 228 to 230 °C. For `COc1cc2c(cc1OC)-c1c(C#N)c(-c3ccnc(C)c3)c(C)n1C(C)C2` (centres unmarked) [Example 45], the melting point lay within 187 to 189 °C. Consider `COc1cc2c(cc1OC)-c1c(C#N)c(-c3ccc([N+](=O)[O-])cc3)c(C)n1C(C)C2` (centres unmarked) [Example 46, 8,9-Dimethoxy-3,5-dimethyl-2-(4-nitro-phenyl)-5,6-dihydro-pyrrolo[2,1-a]isoquinoline-1-carbonitrile], for which the melting point fell in the range of 206 to 207 °C. `COc1cc2c(cc1OC)-c1c(C#N)c(-c3ccc(C(=O)O)cc3)c(C)n1C(C)C2` (centres unmarked) [Example 47, 4-(1-Cyano-8,9-dimethoxy-3,5-dimethyl-5,6-dihydro-pyrrolo[2,1-a]isoquinolin-2-yl)-benzoic acid] showed a melting point of 287 to 289 °C. `COc1cc2c(cc1OC)-c1c(C#N)c(-c3ccc(N)cc3)c(C)n1C(C)C2` (centres unmarked) [Example 48, 2-(4-Amino-phenyl)-8,9-dimethoxy-3,5-dimethyl-5,6-dihydm-pyrrolo[2,1-a]isoquinoline-1-carbonitrile] had a melting point of 237 to 239 °C. The compound `COc1cc2c(cc1OC)-c1c(C#N)c(-c3ccncc3C)c(C)n1C(C)C2` (centres unmarked) [Example 49, 8,9-Dimethoxy-3,5-dimethyl-2-(3-methyl-pyridin-4-yl)-5,6-dihydro-pyrrolo[2,1-a]isoquinoline-1-carbonitrile] returned a melting point of 232 to 233 °C. To `CCOc1cc2c(cc1OC)-c1c(C#N)c(-c3ccc(C(=O)O)cc3)c(C)n1C(C)C2` (centres unmarked) [Example 50, 4-(1-Cyano-8-ethoxy-9-methoxy-3,5-dimethyl-5,6-dihydro-pyrrolo[2,1-a]isoquinolin-2-yl)-benzoic acid] belongs 274 to 277 °C; to `COc1cc2c(cc1OC)-c1c(C#N)c(-c3ccc(O)cc3C)c(C)n1C(C)C2` (centres unmarked) [Example 51, 2-(4-Hydroxy-2-methyl-phenyl)-8,9-dimethoxy-3,5-dimethyl-5,6-dihydro-pyrrolo[2,1-a]isoquinoline-1-carbonitrile], 228 to 230 °C; to `COc1cc2c(cc1OC)-c1c(C#N)c(-c3ccc(C(N)=O)cc3)c(C)n1C(C)C2` (centres unmarked) [Example 52, 4-(1-Cyano-8,9-dimethoxy-3,5-dimethyl-5,6-dihydro-pyrrolo[2,1-a]isoquinolin-2-yl)-benzamide], 228 to 230 °C. The result for `CCOc1cc2c(cc1OC)-c1c(C#N)c(-c3cc(C)c(O)c(C)c3)c(C)n1C(C)C2` (centres unmarked) [Example 53, 8-Ethoxy-2-(4-hydroxy-3,5-dimethyl-phenyl)-9-methoxy-3,5-dimethyl-5,6-dihydro-pyrrolo[2,1-a]isoquinoline-1-carbonitrile] reads 232 to 234 °C. `COc1cc2c(cc1OC)-c1c(C#N)c(-c3cn(S(=O)(=O)N(C)C)c4ccccc34)c(C)n1C(C)C2` (centres unmarked) [Example 54, 3-(1-Cyano-8,9-dimethoxy-3,5-dimethyl-5,6-dihydro-pyrrolo[2,1-a]isoquinolin-2-yl)-indole-1-sulfonic acid dimethylamide] had a melting point of 236 to 237 °C. Turning to `COc1cc2c(cc1OC)-c1c(C#N)c(-c3ccc(-c4nn[nH]n4)cc3)c(C)n1C(C)C2` (centres unmarked) [Example 57, 8,9-Dimethoxy-3,5-dimethyl-2-[4-(2H-tetrazol-5-yl)-phenyl]-5,6-dihydro-pyrrolo[2,1-a]isoquinoline-1-carbonitrile], the melting point was in the range of 204 to 207 °C.

Turning to `COc1cc2c(cc1OC)-c1c(C#N)c(-c3ccc(NS(=O)(=O)N4CCOCC4)cc3)c(C)n1C(C)C2` (centres unmarked) [Example 58, Morpholine-4-sulfonic acid [4-(1-cyano-8,9-dimethoxy-3,5-dimethyl-5,6-dihydro-pyrrolo[2,1-a]isoquinolin-2-yl)-phenyl]-amide], the melting point lay within 223 to 225 °C. `COc1cc2c(cc1OC)-c1c(C#N)c(-c3ccc(NS(C)(=O)=O)cc3)c(C)n1C(C)C2` (centres unmarked) [Example 59, N-[4-(1-Cyano-8,9-dimethoxy-3,5-dimethyl-5,6-dihydro-pyrrolo[2,1-a]isoquinolin-2-yl)-phenyl]-methanesulfonamide]: the melting point was in the range of 257 to 259 °C. As for `COC(=O)c1c(-c2cc(C)c(O)c(C)c2)c(C)n2c1-c1cc(OC)c(OC)cc1CC2C` (centres unmarked) [Example 65, 2-(4-Hydroxy-3,5-dimethyl-phenyl)-8,9-dimethoxy-3,5-dimethyl-5,6-dihydro-pyrrolo[2,1-a]isoquinoline-1-carboxylic acid methyl ester], the melting point is 177 to 179 °C.

`COC(=O)c1c(-c2cn(S(=O)(=O)c3ccc(C)cc3)c3ccccc23)c(C)n2c1-c1cc(OC)c(OC)cc1CC2C` (centres unmarked) [Example 66, 8,9-Dimethoxy-3,5-dimethyl-2-[1-(toluene-4-sulfonyl)-1H-indol-3-yl]-5,6-dihydro-pyrrolo[2,1-a]isoquinoline-1-carboxylic acid methyl ester] yielded a melting point of 177 to 179 °C. Turning to `COc1cc2c(cc1OC)-c1c(C)c(-c3cc(C)c(O)c(C)c3)c(C)n1CC2` [Example 68, 4-(8,9-Dimethoxy-1,3-dimethyl-5,6-dihydro-pyrrolo[2,1-a]isoquinolin-2-yl)-2,6-dimethyl-phenol], the melting point lay within 183 to 185 °C.
